Laboratory results reported in patent EP4800018A1, “PAN-KRAS INHIBITOR AND USE THEREOF IN MEDICINES” (Betta Pharmaceuticals Co., Ltd., priority 2023, dated 2025).

Legend:
Format in all cases: cell-based
[1] = system: KRAS-G12D mutant tumor cells AGS; assay: Cell Proliferation Inhibition Assay (AGS), Cell-titer GLO, 96 h; conditions: Homo sapiens, AGS, 96 h, AGS cells, 96 h incubation, Cell-titer GLO; read-out: AGS(G12D)
Procedure: KRAS-G12D mutant tumor cells AGS were seeded in low-attachment 96-well plates at a cell density of 1×10^3 cells/well and cultured overnight in a cell culture incubator. […] After incubation at 37°C for 96 h, 50 µL of Cell-titer GLO working solution was added to each well, mixed by shaking, incubated at room temperature for 10 min, and the Luminescence value was read on a multi-function microplate reader. The luminescence data were calculated and converted into inhibition percent. The inhibition percent of cell proliferation was calculated according to the following formula: Inhibition Percent = (MaxValue−MeasuredValue)/(MaxValue−Blank) × 100% [formula] […] Curve fitting was performed using GraphPad Prism software to obtain IC50 values, see Table 1.

[2] = system: KRAS-G12V mutant tumor cells SW620; assay: Cell Proliferation Inhibition Assay (SW620), Cell-titer GLO, 96 h; conditions: Homo sapiens, SW-620, 96 h, SW620 cells, 96 h incubation, Cell-titer GLO; read-out: SW620(G12V)
Procedure: KRAS-G12V mutant tumor cells SW620 were seeded in low-attachment 96-well plates at a cell density of 1×10^3 cells/well and cultured overnight in a cell culture incubator. After the cells adhered, the test compounds were added to the 96-well plates at final concentrations of 10000, 2000, 400, 80, 16, 3.2, 0.64, 0.13, 0.03, 0 nM (final concentration of DMSO was 0.5% for all). After incubation at 37°C for 96 h, 50 µL of Cell-titer GLO working solution was added to each well, mixed by shaking, incubated at room temperature for 10 min, and the Luminescence value was read on a multi-function microplate reader. The luminescence data were calculated and converted into inhibition percent. The inhibition percent of cell proliferation was calculated according to the following formula: Inhibition Percent = (MaxValue−MeasuredValue)/(MaxValue−Blank) × 100% [formula]
("Max Value" comes from the 0.5% DMSO control well, "Blank" comes from the blank control well, and "Measured Value" comes from the compound-treated well).
Curve fitting was performed using GraphPad Prism software to obtain IC50 values, see Table 1.

KRAS G12V-cRAF = molecular target: T1, KRAS G12V-cRAF (Homo sapiens, UniProt P01116, G12V); assay: Cellular KRAS G12V-cRAF Binding Inhibition Assay (NanoBRET, AD293 stable cells); conditions: 3 h incubation, read-out: NanoBRET KRAS G12V
T1 construct: expressed in transfected cells
Procedure: NanoLuc® luciferase was used as the energy donor, and NanoBRET™ 618 fluorescent ligand labeled with the HaloTag® protein was used as the energy acceptor to detect protein-protein interactions in living cells. […] Except for wells with medium added as a blank control, NanoBRET™ 618 fluorescent ligand was added to all other wells, and the plates were cultured overnight in a cell culture incubator. […] The luminescence data were calculated and converted into inhibition percent. The inhibition percent of KRAS G12V-cRAF binding was calculated according to the following formula: Inhibition Percent = (MaxValue−MeasuredValue)/(MaxValue−Blank) × 100% [formula] […] Curve fitting was performed using GraphPad Prism software to obtain IC50 values, see Table 1.

KRAS G12D-cRAF = molecular target: T2, KRAS G12D-cRAF (Homo sapiens, UniProt P01116, G12D); assay: Cellular KRAS G12D-cRAF Binding Inhibition Assay (NanoBRET, AD293 stable cells); conditions: 3 h incubation, read-out: NanoBRET KRAS G12D
T2 construct: expressed in transfected cells
Procedure: NanoLuc® luciferase was used as the energy donor, and NanoBRET™ 618 fluorescent ligand labeled with the HaloTag® protein was used as the energy acceptor to detect protein-protein interactions in living cells. AD293 stable cells transfected with KRAS G12D-NanoLuc® luciferase and cRAF RBD-HaloTag® tag protein were seeded in 96-well plates at a cell density of 1×10^4 cells/well. Except for wells with medium added as a blank control, NanoBRET™ 618 fluorescent ligand was added to all other wells, and the plates were cultured overnight in a cell culture incubator. […] The luminescence data were calculated and converted into inhibition percent. The inhibition percent of KRAS G12D-cRAF binding was calculated according to the following formula: Inhibition Percent = (MaxValue−MeasuredValue)/(MaxValue−Blank) × 100% [formula] […] Curve fitting was performed using GraphPad Prism software to obtain IC50 values, see Table 1.

T1 sequence (P01116 1-188 isoform P01116-2 G12V): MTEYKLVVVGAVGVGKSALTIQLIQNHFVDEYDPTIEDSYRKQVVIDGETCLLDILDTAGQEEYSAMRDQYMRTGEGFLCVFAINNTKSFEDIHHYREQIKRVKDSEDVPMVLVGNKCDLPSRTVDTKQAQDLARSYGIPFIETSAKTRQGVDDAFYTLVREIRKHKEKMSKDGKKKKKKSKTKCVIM
T2 sequence (P01116 1-188 isoform P01116-2 G12D): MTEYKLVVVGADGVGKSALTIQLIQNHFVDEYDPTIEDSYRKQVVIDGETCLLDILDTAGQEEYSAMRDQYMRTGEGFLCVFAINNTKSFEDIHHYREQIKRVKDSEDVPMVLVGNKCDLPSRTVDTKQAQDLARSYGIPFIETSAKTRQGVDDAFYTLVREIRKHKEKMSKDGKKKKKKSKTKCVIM

| SMILES | IC50 [1] [nM] | IC50 [2] [nM] | IC50 (KRAS G12V-cRAF) [nM] | IC50 (KRAS G12D-cRAF) [nM] |
| --- | --- | --- | --- | --- |
| CC1OCCCn2c(c3c4cc(ccc42)-c2csc(n2)CC(NC(=O)C2CC2C(F)F)C(=O)N2CCCC(N2)C(=O)OCC(C)(C)C3)-c2cc(OC3CCN(C)CC3)cnc21 [Example 97, (1S,2S)-2-(difluoromethyl)-N-((1^5S,6^3S,4S,Z)-1^5,10,10-trimethyl-1^2-((1-methylpiperidin-4-yl)oxy)-5,7-dioxo-1^8,1^9,6^1,6^2,6^3,6^4,6^5,6^6-octahydro-1^5H,1^7H-8-oxa-1(13,15)-pyrido[3',2':7,8][1,5]oxazonino[5,6-a]indola-2(4,2)-thiazola-6(1,3)-pyridazinacycloundecaphane-4-yl)cyclopropane-1-carb oxamide] | 2.69 | 0.42 | 61.8 | 11.9 |
| CC1OCCCn2c(c3c4cc(ccc42)-c2csc(n2)CC(NC(=O)C2CC2C(F)F)C(=O)N2CCCC(N2)C(=O)OCC(C)(C)C3)-c2cc(N3CC4CCC3CN4C)cnc21 [Example 154, (1S,2S)-2-(difluoromethyl)-N-((1^5S,6^3S,4S,Z)-1^5,10,10-trimethyl-1^2-(5-methyl-2,5-diazabicyclo[2.2.2]octan-2-yl)-5,7-dioxo-1^8,1^9,6^1,6^2,6^3,6^4,6^5,6^6-octahydro-1^5H,1^7H-8-oxa-1(13,15)-pyrido[3',2 ':7,8][1,5]oxazonino[5,6-a]indola-2(4,2)-thiazola-6(1,3)-pyridazinacycloundecaphane-4-yl)cyclo propane-1-carboxamide] | 1.95 | 0.91 | 19.3 | 4.2 |
| CC1OCCCn2c(c3c4cc(ccc42)-c2csc(n2)CC(NC(=O)C24CC(C)(C2)C4)C(=O)N2CCCC(N2)C(=O)OCC(C)(C)C3)-c2cc(N3CCOCC3)cnc21 (stereo not shown) [Example 116, 3-methyl-N-((1^5S6^3S4S,Z)-1^5,10,10-trimethyl-1^2-morpholino-5,7-dioxo-1^8,1^9,6^1,6^2,6^3,6^4,6^5,6^6-octahydro-1^5H,1^7H-8-oxa-1(13,15)-pyrido[3',2':7,8][1,5]oxazonino[5,6-a]indola-2(4,2)-thiazola-6 (1,3)-pyridazinacycloundecaphane-4-yl)bicyclo[1.1.1]pentane-1-carboxamide] | 8.27 | 4.1 | 37.8 | 9.57 |
| CCN1CCN(c2cnc3c(c2)-c2c4c5cc(ccc5n2CCCOC3C)-c2csc(n2)CC(NC(=O)C2CC2C)C(=O)N2CCCC(N2)C(=O)OCC(C)(C)C4)CC1 [Example 21, (1S,2S)-N-((1^5S,6^3S,4S,Z)-12-(4-ethylpiperazin-1-yl)-1^5,10,10-trimethyl-5,7-dioxo-1^8,1^9,6^1,6^2,6^3 ,6^4,6^5,6^6-octahydro-1^5H,1^7H-8-oxa-1(13,15)-pyrido[3',2':7,8][1,5]oxazonino[5,6-a]indola-2(4,2)-thiazola-6(1,3)-pyridazinacycloundecaphane-4-yl)-2-methylcyclopropane-1-carboxamide] | 2.19 | 1.46 | 15.1 | 3.95 |
| C[C@@H]1OCCCn2c(c3c4cc(ccc42)-c2csc(n2)C[C@H](NC(=O)[C@H]2C[C@@H]2C(F)F)C(=O)N2CCC[C@H](N2)C(=O)OCC(C)(C)C3)-c2cc(N3C[C@@H]4CCN(C)[C@@H]4C3)cnc21 [Example 163, (1S,2S)-2-(difluoromethyl)-N-((1^5S,6^3S,4S,Z)-1^5,10,10-trimethyl-1^2-((3aS,6aS)-1-methylhexahydropyrrolo[3,4-b]pyrrol-5(1H)-yl)-5,7-dioxo-1^8,1^9,6^1,6^2,6^3,6^4,6^5,6^6-octahydro-1^5H,1^7H-8-oxa-1(1 3,15)-pyrido[3',2':7,8][1,5]oxazonino[5,6-a]indola-2(4,2)-thiazola-6(1,3)-pyridazinacycloundecaphane-4-yl)cyclopropane-1-carboxamide] | 1.44 | 0.2 | – | – |

Molecules with a lower IC50 [1], results first:

| IC50 [1] [nM] | IC50 [2] [nM] | IC50 (KRAS G12V-cRAF) [nM] | IC50 (KRAS G12D-cRAF) [nM] | SMILES |
| --- | --- | --- | --- | --- |
| 1.25 | 0.79 | 40.9 | 9.2 | CC1OCCCn2c(c3c4cc(ccc42)-c2csc(n2)CC(NC(=O)C2CC2C(F)F)C(=O)N2CCCC(N2)C(=O)OCC(C)(C)C3)-c2cc(N3CCS(=O)(=O)CC3)cnc21 [Example 133, (1S,2S)-2-(difluoromethyl)-N-((1^5S,6^3S,4S,Z)-1^2-(1,1-dioxidothiomorpholino)-1^5,10,10-trimethy 1-5,7-dioxo-1^8,1^9,6^1,6,^26^3,6^4,6^5,6^6-octahydro-1^5H,1^7H-8-oxa-1(13,15)-pyrido[3',2':7,8][1,5]oxazonino[5,6-alindola-2(4,2)-thiazola-6(1,3)-pyridazinacycloundecaphane-4-yl)cyclopropane-1-carboxamide] |
| 1.1 | 0.32 | 6.7 | 2.02 | CC1OCCCn2c(c3c4cc(ccc42)-c2csc(n2)CC(NC(=O)C24CC(C)(C2)C4)C(=O)N2CCCC(N2)C(=O)OCC(C)(C)C3)-c2cc(N3CC(C)N(C)C(C)C3)cnc21 [Example 172, 3-methyl-N-((1^5S,6^3S,4S,Z)-1^5,10,10-trimethyl-5,7-dioxo-1^2-((3S,5S)-3,4,5-trimethylpiperazin-1-y)-1^8,1^9,6^1,6^2,6^3,6^4,6^5,6^6-octahydro-1^5H,1^7H-8-oxa-1(13,15)-pyrido[3',2':7,8][1,5]oxazonino[5,6-a]indola-2(4,2)-thiazola-6(1,3)-pyridazinacycloundecaphane-4-yl)bicyclo[1.1.1]pentane-1-carb oxamide] |
| 1.12 | 0.15 | 14 | 4.17 | CC1OCCCn2c(c3c4cc(ccc42)-c2csc(n2)CC(NC(=O)C2CC2C(F)F)C(=O)N2CCCC(N2)C(=O)OCC(C)(C)C3)-c2cc(N3CCN4CCOCC4C3)cnc21 [Example 110, (1S,2S)-2-(difluoromethyl)-N-((1^5S,6^3S,4S,Z)-1^2-((S)-hexahydropyrazino[2,1-c][1,4]oxazin-8(1 H)-yl)-1^5,10,10-trimethyl-5,7-dioxo-1^8,1^9,6^1,6^2,6^3,6^4,6^5,6^6-octahydro-1^5H,1^7H-8-oxa-1(13,15)-pyrido[3',2':7,8][1,5]oxazonino[5,6-a]indola-2(4,2)-thiazola-6(1,3)-pyridazinacycloundecaphane-4-yl)cyclopropane-1-carboxamide] |
| 0.9 | 0.2 | 27.1 | 1.2 | CC1OCCCn2c(c3c4cc(ccc42)-c2csc(n2)CC(NC(=O)C2C(C)C2C)C(=O)N2CCCC(N2)C(=O)OCC(C)(C)C3)-c2cc(CN3CCN(C)CC3)cnc21 [Example 193, (1r,2R,3S)-2,3-dimethyl-N-((1^5S,6^3S,4S,Z)-1^5,10,10-trimethyl-1^2-((4-methylpiperazin-1-yl)methyl)-5,7-dioxo-1^8,1^9,6^1,6^2,6^3,6^4,6^5,6^6-octahydro-1^5H,1^7H-8-oxa-1(13,15)-pyrido[3',2':7,8][1,5]oxazonino[5,6-a]indola-2(4,2)-thiazola-6(1,3)-pyridazinacycloundecaphane-4-yl)cyclopropane-1-car boxamide] |
